These are literature values, as cited in US20070071809A1, “Ginger containing compositions to control pain” (priority 2005, published 2007).

This data set deals with osteoarthritis of the knee. The conditions noted are these: 1500 mg per day.

With `N[C@H]1C(O)O[C@H](CO)[C@@H](O)[C@@H]1O` (some centres unmarked) [Glucosamine], for the setting “212 patients, half glucosamine, half placebo”, the “knee pain in patients with osteoarthritis of the knee” value is “reduce knee pain”. Further, for the setting “placebo group had worsened pain scores”, the “pain scores versus placebo group” value is “statistically improved pain scores”.
